The IC50 is the concentration at which inhibition is half-maximal.

The test system of one test is TDP-43 aggregation in PC12 cells stably expressing TDP-43^Q331K::eGFP. The experiment in a line: In vitro efficacy assay, TDP-43 aggregation concentration-response. As to conditions: Rattus norvegicus, PC-12, inhibition of TDP-43 aggregation; PC12 TDP-43^Q331K::eGFP, 1 hour pre-treatment, 15 μM sodium arsenite for 23 hours; 10-point dose response. The format is cell-based. As to the method:
Exemplary compounds of the invention were evaluated for efficacy in inhibiting TDP-43 inclusions using a concentration-response assay. Briefly, PC12 cells stably expressing a GFP-tagged mutant form of TDP-43 (TDP-43^Q331K::eGFP) were pre-treated for 1 hour with exemplary compounds and stressed with 15 μM sodium arsenite for 23 hours to induce TDP-43 aggregation. The inhibitory effect on TDP-43 aggregation was measured using fluorescence microscopy. The ratio of cells with TDP-43 aggregates was calculated based on the total number of cells with detectable GFP expression.
For `CCN(CC1CCN(C(C)(C)Cc2cccc(OC)c2)CC1)C(=O)c1cc2ccccc2[nH]1` [Compound 332], the IC50 was < 1.5 µM.
For the compound `CC(C)N(CC1CCN(Cc2ccc(F)cc2)CC1)C(=O)c1cc2ccccc2[nH]1` [compound 284], the IC50 was > 10 µM.
As to `CCN(CC1CCNCC1)C(=O)c1cc2cc(OC)ccc2[nH]1` [compound 400], the IC50 was > 10 µM.
The same measure, in the same setting: the figure for `CCN(CC1CCN(Cc2ccc(OC)cc2)CC1)C(=O)c1cc2cc(OC)ccc2[nH]1` [compound 404] is < 1.5 µM; for `CCN(CC1CCCN(Cc2cc3ccccc3o2)C1)C(=O)c1cc2c(F)cc(F)cc2[nH]1` (centres unmarked) [Compound 205] it is 1.5 to 4 µM; for `CCN(CC1CCCN(Cc2ccc(OC)cc2)C1)C(=O)c1cc2ccc(Cl)cc2[nH]1` (centres unmarked) [Compound 168] it is < 1.5 µM.
For the compound `CCN(CC1CCN(C(C)(C)c2ccccc2)CC1)C(=O)c1cc2cc(OC)ccc2[nH]1` [Compound 359], the IC50 is < 1.5 µM.
Regarding `CCN(CC1CCCN(CCc2ccc3c(c2)OCC3)C1)C(=O)c1cc2ccccc2[nH]1` (centres unmarked) [Compound 145], the IC50 was in the range of 1.5 to 4 µM.
Take `CCN(CC1CCCNC1)C(=O)c1cc2cc(OC(F)F)ccc2[nH]1` (centres unmarked) [compound 425]: the IC50 is > 10 µM.
On to `COc1cccc(CCN2CCCC(N(C)C(=O)c3cc4ccccc4[nH]3)C2)c1` (centres unmarked) [Compound 222], for which the IC50 was > 10 µM.
In the case of `CCN(CC1CCCN(CCc2ccc(C#N)cc2)C1)C(=O)c1cc2ccccc2[nH]1` (centres unmarked) [Compound 142], the IC50 was > 10 µM.
Still for that read-out and setting: in the case of `CCN(CC1CCN(Cc2ccccc2Cl)CC1)C(=O)c1cc2ccccc2[nH]1` [compound 286] it was 1.5 to 4 µM.
`CN(CC1CCN(Cc2ccccc2)CC1)C(=O)c1cc2ccccc2[nH]1` [compound 263]: the IC50 is > 10 µM.
On to `CCN(CC1CCN(Cc2ccccc2)CC1)C(=O)c1cc2ccccc2[nH]1` [compound 291], for which the half-maximal inhibitory concentration (IC50) lay within 1.5 to 4 µM.
Turning to `CCN(CC1CCCN(Cc2ccc(Cl)cc2)C1)C(=O)c1cc2ccc(C)cc2[nH]1` (centres unmarked) [Compound 155], the IC50 was 1.5 to 4 µM.
The same measure, in the same setting: the figure for `CC(C)N(CC1CCNCC1)C(=O)c1cc2ccccc2[nH]1` [compound 276] is > 10 µM; for `CCN(CC1CCN(CC(F)(F)c2cccc(F)c2)CC1)C(=O)c1cc2ccccc2[nH]1` [Compound 410] it is 1.5 to 4 µM.
Take `O=C(NCC1CCN(Cc2cccc(Cl)c2)CC1)c1cc2ccccc2[nH]1` [compound 271]: the IC50 is < 1.5 µM.
`COc1cccc(CN2CCC(CN(C(=O)c3cc4ccccc4[nH]3)C(C)C)CC2)c1` [compound 279]: the IC50 was > 10 µM.
In the case of `CCN(CC1CCN(Cc2cccc(OC(F)(F)F)c2)CC1)C(=O)c1cc2cc(OC(F)(F)F)ccc2[nH]1` [compound 308], the half-maximal inhibitory concentration (IC50) is > 10 µM.
The same measure, in the same setting: in the case of `CCN(CC1CCCN(Cc2ccc(OC)cc2)C1)C(=O)c1cc2cccc(F)c2[nH]1` (centres unmarked) [Compound 158] it was 4 to 7 µM; in that of `CCN(CC1CCCN(Cc2cc3ccccc3o2)C1)C(=O)c1cc2cc(OC)ccc2[nH]1` (centres unmarked) [Compound 203], 1.5 to 4 µM; in that of `CCN(CC1CCCN(Cc2ccccc2C#N)C1)C(=O)c1cc2ccccc2[nH]1` (centres unmarked) [Compound 130], 1.5 to 4 µM.
With `CCN(CC1CCCNC1)C(=O)c1cc2cc(OCc3ccccc3)ccc2[nH]1` (centres unmarked) [compound 424], the IC50 lay within 4 to 7 µM.
Still for that read-out and setting: the figure for `CCN(CC1CCN(CC(F)(F)c2ccccc2)CC1)C(=O)c1cc2ccccc2[nH]1` [Compound 411] is < 1.5 µM; for `CCN(CC1CCCN(Cc2cccc(OC(F)F)c2)C1)C(=O)c1cc2cc(OC(F)F)ccc2[nH]1` (centres unmarked) [Compound 177] it is < 1.5 µM.
With `CCN(CC1CCCN(CCc2cccc(OC)c2)C1)C(=O)c1ccccn1` (centres unmarked) [Compound 236], the 50% inhibitory concentration (IC50) was > 10 µM.

Still in this test, the particulars now being: inhibition of TDP-43 aggregation; PC12 TDP-43^Q331K::eGFP, 1 hour pre-treatment, 15 μM sodium arsenite for 23 hours; 10-point dose response.
For `CCN(CC1CCN(CC(C)(C)c2cc3ccccc3o2)CC1)C(=O)c1cc2ccccc2[nH]1` [compound 318], the IC50 was < 1.5 µM.
Regarding `CCN(CC1CCCN(C(C)(C)Cc2cccc(OC)c2)C1)C(=O)c1cc2ccccc2[nH]1` (centres unmarked) [Compound 331], the IC50 was 1.5 to 4 µM.

Values taken from patent publication US20180305334A1, “COMPOUNDS, COMPOSITIONS AND METHODS OF USE AGAINST STRESS GRANULES” (Aquinnah Pharmaceuticals, Inc., priority 2015, published 2018).
